The results in this text go back to patent US9034899B2, “Aryl, heteroaryl, and heterocycle substituted tetrahydroisoquinolines and use thereof” (Albany Molecular Research, Inc., priority 2009, dated 2015).

In one experiment the target is hDAT (Homo sapiens (Human), UniProt Q01959). The experiment can be described thus: DAT radioligand binding assay ([125I]RTI-55, HEK-293 membranes). The conditions noted are these: (+)-enantiomers; read-out: DAT IC50. The procedure:
(§1) Recombinant HEK-293 cells expressing either the hSERT, hDAT, or hNET proteins were harvested from T-175 flasks as follows. The medium was removed from the flasks and the cells rinsed with HBSS without Ca and without Mg. The cells were then incubated for 5-10 minutes in 10 mM Tris-Cl, pH 7.5, 5 mM EDTA before the cells were lifted with a combination of pipetting and scraping, as needed. The cell suspension was collected into centrifuge bottles and homogenized for 30 seconds with a Polytron homogenizer. The suspension was centrifuged for 30 minutes at 32,000×g, 4° C. The supernatant was decanted and the pellet resuspended and homogenized in 50 mM Tris-Cl, pH 7.5, 1 mM EDTA for 10 seconds. The suspension was then centrifuged again for 30 minutes at 32,000×g, 4° C. The supernatant was decanted and the pellet resuspended in 50 mM Tris-Cl, pH 7.5, 1 mM EDTA and briefly homogenized. A Bradford assay (Bio-rad) was performed and the membrane preparation diluted to 2 mg/ml with 50 mM Tris-Cl, pH 7.5, 1 mM EDTA. Aliquots were prepared, and then frozen and stored at −80° C.
Compounds were dissolved in 100% DMSO at a concentration 100 times the desired highest assay concentration, serially diluted 1:3 in 100% DMSO, and 0.4 μl/well of each solution was dispensed to a Nunc polypropylene, round bottom, 384-well plate. 100% inhibition is defined with 0.4 μl/well of 1 mM GBR-12935 dissolved in DMSO. 20 ul/well of a 2× membrane preparation (12.5 μg/ml in 30 mM sodium phosphate buffer, pH 7.9 at 4° C.) and 20 μl/well of a 2× radioligand solution ([…] [^125I]RTI-55 in 30 mM sodium phosphate buffer, pH 7.9 at 4° C.) were added to the well and the reaction incubated for 1 hour at room temperature. The contents of the assay plate were then transferred to a Millipore MultiscreenHTS GF/B filter plate which was pretreated with 0.5% PEI for at least one hour. The plate was vacuum-filtered and washed with 7 washes of 100 μl/well 50 mM Tris-Cl, pH 7.5, 120 mM NaCl, 5 mM KCl chilled to 4° C. The filtration and washing were completed in less than 90 seconds. The plates were air-dried overnight, 12 μl/well of MicroScint scintillation fluid added, and the plates counted in a Trilux.
(§2) The raw data was normalized to percent inhibition using control wells defining 0% (DMSO only) and 100% (selective inhibitor) inhibition which were run on each plate. Each plate was run in triplicate, and the concentration response curve thus generated was fit using the four-parameter dose response equation, Y=Bottom+(Top-Bottom)/(1+10^((LogIC50−X)*HillSlope)) in order to determine the IC50 value for each compound. The radioligand concentration chosen for each assay corresponds to the Kd concentration determined through saturation binding analysis for each assay.

In another experiment the test system is NET. The experiment can be described thus: Occupancy assay, ex vivo binding in brain tissue, NET. An excerpt: (§3) The general procedure for brain tissue collection and transporter occupancy assessment is briefly described as follows. Mice were sacrificed by asphyxiation in CO2, rats by decapitation and dogs by IV injection of euthanasia solution. For mice and rats, after the brains were removed from the skull, the forebrain tissue (removal of the brainstem and cerebellum) was used for SERT, NET, and DAT occupancy assessment. In dogs, the striatum was dissected for DAT occupancy and the remaining forebrain tissue (without the striatum, brainstem, and cerebellum) was used for SERT and NET occupancy assessment. The brain tissues were frozen in chilled isopentane and stored at −80° C. until homogenization.
(§4) The brain tissues were thawed and then homogenized using a polytron homogenizer (Kinematica). Sample aliquots were frozen immediately and stored at −80° C. Protein content was measured for each sample using a Coomassie protein assay kit (Pierce).
(§5) On the day of ex vivo binding for occupancy assessment, frozen sample aliquots were thawed and needle homogenized, and 100 μg of the tissue was incubated for SERT, NET, and DAT binding under assay conditions summarized in Table 2. […] The filters were washed twice with ice-cold incubation buffer, punched into a clear plate prior to the addition of 200 ul scintillation fluid per well. Radioligand was measured using a Wallac Microbeta liquid scintillation counter.
(§6) The specific binding was calculated by subtracting the value of the non-specific binding from that of the total binding in each sample. The percent occupancy was calculated as (1−specific binding in drug treated/specific binding in vehicle treated)×100%. […] Nonlinear regression was performed using GraphPad Prism version 3.00 (GraphPad Software, San Diego, Calif.).

A further experiment addresses hNET (Homo sapiens (Human), UniProt P23975). Description: NET radioligand binding assay ([3H]nisoxetine, HEK-293 membranes). The following applies: (+)-enantiomers. The procedure: as §1
Compounds were dissolved in 100% DMSO at a concentration 100 times the desired highest assay concentration, serially diluted 1:3 in 100% DMSO, and 1.0 μl/well of each solution was dispensed to a Nunc polypropylene, round bottom, 384-well plate. 100% inhibition is defined with 1.0 μl/well of 10 mM desipramine dissolved in DMSO. 50 μl/well of a 2× membrane preparation (0.4 mg/ml in 50 mM Tris-Cl, pH 7.5, 120 mM NaCl, 5 mM KCl) and 50 μl/well of a 2× radioligand solution (4 nM [^3H]nisoxetine in 50 mM Tris-Cl, pH 7.5, 120 mM NaCl, 5 mM KCl) were added to the well and the reaction incubated for 1 hour at room temperature. The contents of the assay plate were then transferred to a Millipore MultiscreenHTS GF/B filter plate which was pretreated with 0.5% PEI for at least one hour. The plate was vacuum filtered and washed with 7 washes of 100 μl/well 50 mM Tris-Cl, pH 7.5, 120 mM NaCl, 5 mM KCl chilled to 4° C. The filtration and washing were completed in less than 90 seconds. The plates were air-dried overnight, 12 μl/well of MicroScint scintillation fluid added, and the plates counted in a Trilux.
as §2

The test system of the next experiment is DAT. The experiment can be described thus: Occupancy assay, ex vivo binding in brain tissue, DAT.
Description: as §3, §4, §5, §6

Chain of hDAT (Q01959 whole entry): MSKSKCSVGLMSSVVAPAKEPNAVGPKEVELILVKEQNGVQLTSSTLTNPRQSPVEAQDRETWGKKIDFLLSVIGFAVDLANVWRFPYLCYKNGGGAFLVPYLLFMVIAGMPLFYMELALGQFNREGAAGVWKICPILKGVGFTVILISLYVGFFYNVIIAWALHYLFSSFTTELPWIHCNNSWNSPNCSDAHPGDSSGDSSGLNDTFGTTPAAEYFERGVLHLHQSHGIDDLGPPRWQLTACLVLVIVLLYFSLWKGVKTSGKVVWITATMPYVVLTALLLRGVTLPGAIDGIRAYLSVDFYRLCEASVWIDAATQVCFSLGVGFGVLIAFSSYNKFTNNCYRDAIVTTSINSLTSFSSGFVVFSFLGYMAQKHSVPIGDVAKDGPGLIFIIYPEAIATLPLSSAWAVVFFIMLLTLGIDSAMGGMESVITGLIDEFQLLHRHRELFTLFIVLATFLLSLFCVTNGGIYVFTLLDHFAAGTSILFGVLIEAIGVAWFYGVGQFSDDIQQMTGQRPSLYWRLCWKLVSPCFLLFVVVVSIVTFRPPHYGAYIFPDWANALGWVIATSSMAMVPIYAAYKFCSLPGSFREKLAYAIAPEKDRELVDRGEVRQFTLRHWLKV
Chain of hNET (P23975 whole entry): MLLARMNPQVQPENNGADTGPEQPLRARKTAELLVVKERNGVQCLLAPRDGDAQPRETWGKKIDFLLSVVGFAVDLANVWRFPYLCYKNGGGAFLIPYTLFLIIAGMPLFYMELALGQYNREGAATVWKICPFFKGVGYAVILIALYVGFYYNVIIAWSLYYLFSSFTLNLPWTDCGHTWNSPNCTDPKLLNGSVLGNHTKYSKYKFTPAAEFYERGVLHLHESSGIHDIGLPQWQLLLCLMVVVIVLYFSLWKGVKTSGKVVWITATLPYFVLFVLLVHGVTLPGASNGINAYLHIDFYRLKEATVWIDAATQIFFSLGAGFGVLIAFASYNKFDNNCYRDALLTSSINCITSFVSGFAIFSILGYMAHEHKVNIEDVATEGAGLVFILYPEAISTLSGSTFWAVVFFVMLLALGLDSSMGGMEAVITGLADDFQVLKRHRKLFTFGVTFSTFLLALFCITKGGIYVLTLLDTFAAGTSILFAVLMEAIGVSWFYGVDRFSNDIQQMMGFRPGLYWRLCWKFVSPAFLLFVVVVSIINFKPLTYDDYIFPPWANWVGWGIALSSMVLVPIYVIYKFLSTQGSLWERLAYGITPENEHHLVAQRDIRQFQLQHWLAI

For the compound `CC1(C)NCC(c2ccc(Cl)c(Cl)c2)c2ccc(-c3cccnn3)cc21` (single isomer, unassigned) [Example 9, 4-(3,4-dichlorophenyl)-1,1-dimethyl-7-(pyridazin-3-yl)-1,2,3,4-tetrahydroisoquinoline], the IC50 was 1.8 nM on hDAT and 133 nM at hNET. Moreover, the “NET Occupancy %” value with NET (dose 1 mg/kg, time point 1 h) was found to be 20%. For the same compound, the “DAT Occupancy %” value with DAT (dose 1 mg/kg, time point 1 h) is 71%.

Consider `FC(F)Oc1ccc(-c2ccc3c(c2)CNCC3c2ccc(Cl)c(Cl)c2)nn1` (stereo not shown) [Example 12, 4-(3,4-dichlorophenyl)-7-(6-(difluoromethoxy)pyridazin-3-yl)-1,2,3,4-tetrahydroisoquinoline], for which the IC50 came out at 50.2 nM on hDAT and 18.8 nM on hNET. For the same compound, in the experiment on NET (dose 1 mg/kg, time point 3 h), the “NET Occupancy %” value is 46%. Moreover, in the experiment on DAT (dose 1 mg/kg, time point 3 h), the “DAT Occupancy %” value came out at 15%.

As for `CC1(C)NCC(c2ccc(Cl)c(Cl)c2)c2ccc(-c3ccc(N)nn3)cc21` (stereo not shown) [Example 13, 4-(3,4-dichlorophenyl)-7-(6-aminopyridazin-3-yl)-1,1-dimethyl-1,2,3,4-tetrahydroisoquinoline], the figures for the IC50 at hDAT and at hNET were 2.4 nM and 97 nM, respectively. Moreover, the “NET Occupancy %” value in the experiment with NET (dose 3 mg/kg, time point 3 h) is listed as 5%. Also, the “DAT Occupancy %” value in the experiment on DAT (dose 3 mg/kg, time point 3 h) turned out to be 53%.

On to `Cc1noc(C)c1-c1ccc2c(c1)CNCC2c1ccc(Cl)c(Cl)c1` (stereo not shown) [Example 25, 4-(4-(3,4-dichlorophenyl)-1,2,3,4-tetrahydroisoquinolin-7-yl)-3,5-dimethylisoxazole], for which the half-inhibitory concentration (IC50) on hDAT stood at 47.3 nM; on hNET, 195 nM. The “NET Occupancy %” value in the experiment on NET (dose 1 mg/kg, time point 3 h) is reported as 0%. For the same compound, the “DAT Occupancy %” value with DAT (dose 1 mg/kg, time point 3 h) was 0%.

As for `Clc1ccc(C2CNCc3cc(-c4cccnn4)ccc32)cc1Cl` (stereo not shown) [Example 33, 4-(3,4-dichlorophenyl)-7-(pyridazin-3-yl)-1,2,3,4-tetrahydroisoquinoline], the 50% inhibitory concentration (IC50) at hDAT was found to be 15.4 nM; on hNET it was 26.4 nM. Moreover, in the experiment with NET (dose 1 mg/kg, time point 1 h), the “NET Occupancy %” value came out at 3%. Moreover, the “DAT Occupancy %” value with DAT (dose 1 mg/kg, time point 1 h) was 8%.

As to `Nc1ccc(-c2ccc3c(c2)CNCC3c2ccc(Cl)c(Cl)c2)nn1` (stereo not shown) [Example 34, 6-(4-(3,4-dichlorophenyl)-1,2,3,4-tetrahydroisoquinolin-7-yl)pyridazin-3-amine], the figures for the concentration for half-maximal inhibition (IC50) at hDAT and on hNET were 7.1 nM and 22.9 nM, respectively. Also, the “NET Occupancy %” value in the experiment with NET (dose 1 mg/kg, time point 1 h) was found to be 11%. The “DAT Occupancy %” value in the experiment with DAT (dose 1 mg/kg, time point 1 h) is on record as 0%.

In the case of `CC1(C)NCC(c2ccc(Cl)c(Cl)c2)c2ccc(-c3ccc4ncnn4c3)cc21` (stereo not shown) [Example 40, 4-(3,4-dichlorophenyl)-7-([1,2,4]triazolo[1,5-a]pyridin-6-yl)-1,1-dimethyl-1,2,3,4-tetrahydroisoquinoline], the IC50 was determined as 2.1 nM at hDAT and 51 nM at hNET. Further, in the experiment with NET (dose 3 mg/kg, time point 3 h), the “NET Occupancy %” value amounted to 1%. In addition, the “DAT Occupancy %” value with DAT (dose 3 mg/kg, time point 3 h) turned out to be 78%.
